The source of these data is patent US20110269790A1, “NOVEL THIENOPYRIDINES AS PHARMACOLOGICALLY ACTIVE AGENTS” (priority 2009, published 2011).

In data set [1] the test system is Nitric oxide. The experiment in a line: Nitric oxide (nitrite, Griess) estimation in LPS treated RAW 264.7 macrophages. The class given is cell-based, mouse. The following applies: 24 hrs, different concentrations, vs LPS treated control. How it is done: Cell Culture and Treatment: The RAW 264.7 (mouse macrophages, national center for cellular sciences) cells were grown in plastic T-25 culture flask in Dulbeccos modified eagles medium (DMEM) without phenol red supplemented with 10% heat activated serum (heating at 57° C. for 30 minutes, 100 μg per ml penicillin, 200 μg per ml streptomycin, 2 mmol L-glutamine, 1% antibiotic/Anti mycotic solution (GIBCO/SRL) under 5% co2 with 85% relative humidity at 37° C. After 2-3 days cells were removed from the culture flask by tripsinizing the cells with Trypsin EDTA solution. Cell count and viability was performed using a standard Trypan blue dye exclusion method. The cell concentration was adjusted to 1×10^5 cells per ml in each well with the same media in the 12 well plates. After 24 hrs incubation the media was removed from each well replaced with a fresh one containing different concentrations (50 μg, 25 μg, 12.5 μg) of the synthetic compounds BN-4, BN-14 and BN-16 along with 10 μg/ml LPS, where as normal control (PBS) and positive controls (Dexa, Roli) LPS (10 μg/ml), were added. 200 μl of media from each well was collected at 6 hrs for the estimation of TNF-α and after 24 hrs for Nitric Oxide respectively. The adherent cells, which remained after removing the media was subjected to […] for determining the cytotoxicity of compounds at selected concentrations
Measurement of Nitrite: For determination of nitric oxide concentration, the stable conversion product of nitric oxide, nitrite (NO^2−) was measured using the Griess reagent (Chi et, al., 2001). After 24 hrs incubation a volume of 100 μl of supernatant from each well of cell culture plates was transferred to 96 well micro plate and equal volume of Griess reagent (1% sulphanilamide, 0.1% N-(1-naphthyl ethylene diamine hydrochloride), 2.5% H3PO4) was then added to the supernatant at room temperature. The absorbance at 570 nm was determined in multi detection Microplate reader after 10 min. Nitric oxide concentration was calculated using standard curve.

Data set [2] relates to rats. Put plainly: Acute oral toxicity, sighting study in rats. The class given is in vivo, rat. The following applies: for Toxic symptoms and mortality, sighting study: single oral doses 5, 50, 500, and 2000 mg/kg, observed 14 days. Here is the method:
In the series of thioenopyridine derivatives compounds BN-4, BN-14 and BN-16 show good antiinflammatory potential in all models tested. […] Acute Oral Toxicity Study was conducted following OECD guidelines by fixed dose method adopted by OECD (420). The study involved preliminary sighting using small number of animals in order to derive the dose effect relation for toxicity and mortality and to provide information on dose selection for the main study.
(§1) In the preliminary sighting study, the effect of various dosed administered to single animals of each sex was investigated in a sequential manner. The sighting study generally yields information on the dose-toxicity relationship including an estimate of the minimum lethal dose. In the main study, the test article is administered to groups of 5 males and 5 female animals at one of the fixed doses (5, 50, 500 and 2000 mg/Kg). The dose is derived from the sighting study. It is immediately below that which is expected to result in mortality. If evident toxicity is not seen at the chosen dose level, the substance should be retested at the next higher dose level. If at the initial dose level, animals die, or a severe toxicity reaction requires removal of animals from the study for animal welfare reasons, the substance is retested at the next lower dose level. Consideration of data from the both sighting study and the main study enabled a judgment to be made on determination of maximum tolerated dose.
Sighting Study: Animals were fasted overnight. Following period of fasting, the animals were weighed and were administered the test articles by oral route. After the test substance was administered food was withheld for further 3 to 4 hrs. In the sighting study, the effect of various doses was investigated in single animals of each sex. Dosing was sequential allowing at least 24 hrs before dosing the next animal. All animals were carefully observed for signs and symptoms of toxicity continuously up to 24 hrs and later up to 7 days. […] In this sighting study, the dose that produced evident toxicity but not death was identified. […]

Data set [3] in a line: Acute oral toxicity, main study in rats. The following applies: both sexes, Albino Wistar, rat, in vivo, single oral dose, read-out: Maximum tolerated dose. Here is the method: as §1
(§2) At least 10 animals (5 males and 5 females) for each species were used for dose level in this study. Animals were fasted overnight and test articles were administered as 1% gum acacia suspension orally. The dose used in this study is selected from one of four levels 5 mg/kg, 50 mg/kg, 500 mg/kg and 2000 mg/kg i.e. the dose that produced evident toxicity but not mortality in sighting study. […] Different biochemical and hematology parameters observed on “0’ day and on termination day .During main study physical parameters like feed consumption and body weight increase were also recorded. 5 males and females were taken, and toxicity study conducted for the compounds. […] Hematology and biochemical parameters were well and within normal range when compared with 0 day in rats and mice. Based on above observations synthetic compounds were safe upto 2000 mg/kg.

Data set [4] can be described thus: Acute oral toxicity, main study in mice. The following applies: both sexes, mouse, in vivo, single oral dose, read-out: Maximum tolerated dose. How it is done:
as §1, §2

The test system of data set [5] is Wistar rats. Put plainly: Antidiabetic activity by starch loaded model. The class given is in vivo, rat. The following applies: for % Increase in glucose, 30 min / Blood glucose level, 30 min: 30 min after starch; for % Increase in glucose, 30 min / Blood glucose level, 30 min / % Increase in glucose, 60 min / Blood glucose level, 60 min / % Increase in glucose, 90 min / Blood glucose level, 90 min / % Increase in glucose, 120 min / Blood glucose level, 120 min / Blood glucose level, 0 min: test compounds 100 mg/kg, Acarbose 10 mg/kg oral; for Blood glucose level, 30 min / Blood glucose level, 60 min / Blood glucose level, 90 min / Blood glucose level, 120 min / Blood glucose level, 0 min: in mg/dL (unit assumed); for % Increase in glucose, 60 min / Blood glucose level, 60 min: 60 min after starch; for % Increase in glucose, 90 min / Blood glucose level, 90 min: 90 min after starch; for % Increase in glucose, 120 min / Blood glucose level, 120 min: 120 min after starch; for Blood glucose level, 0 min: basal, prior to dosing. From the text:
Experimental Animals—Wistar rats of either sex were used for the present study. Animals selected for use in the study were of uniform age and body weight. A minimum of 40 rats, from which eventually 20 rats were selected. Their body weights were in the range of 150-180 gm. The health status of the animals was ascertained by a veterinary surgeon. […] Animals were acclimatized for at least two weeks prior to start of the study. The animals were provided with pellet diet manufactured by NIN, HYDERABAD, India and drinking water adlibitum.
Compound Preparation The required quantity of the synthetic compounds were weighed and made suspension with gum acacia (2%). The test compounds were administered to all rats by per oral route. Acarbose suspension was also prepared in gum acasia suspension and given by oral route.
Antidiabetic activity by Starch model: The method of Rao et al., 2009;Tiwari et al was employed. Animals were fasted over night (12 hrs). Basal blood glucose levels were estimated for all the animals prior to dosing in test and standard groups. This was designated as “0” min reading. […] After test compounds administration animals in all three groups received Starch aqueous solution (2 gm/kg body weight). Blood glucose levels were monitored at 30, 60, 90 and 120 min after the administration of Starch in all the three groups. The percentage of increase in, blood glucose levels was calculated with respect to the control group at each time point.

Turning to `Cc1sc2nc3c(c(N)c2c1C)CCCCC3` [BN-4, 2,3-dimethyl-6,7,8,9-tetrahydro-5H-cyclohepta[b]thieno[3,2-e]pyridin-4-amine], the “Release of NO from murine macrophage cell line” value (“Release of NO” below) in data set [1] is recorded as “significantly (p<0.01) suppressed”. In addition, the “Toxic symptoms and mortality, sighting study” value in data set [2] was “do not show any toxic symptoms and mortality”. Further, the MTD at 14 days in data set [3] and in data set [4] was greater than 2000 mg/kg throughout.
In the case of `Nc1c2c(nc3sc4c(c13)CCC4)CCC2` [BN-13, 1,2,3,6,7,8-hexahydrocyclopenta [b]cyclopenta[4,5] thieno[3,2-e]pyridin-9-amine], the “Reduction in percentage increase in blood glucose levels” value in data set [5] (100 mg/kg oral, starch 2 gm/kg, 30-120 min, vs diabetic control) is on record as “greatest inhibitory activity”. Besides, in data set [5], the “% Increase in glucose, 30 min” value was 32.75%; the “Blood glucose level, 30 min” value is listed as 108.37; the “% Increase in glucose, 60 min” value was determined as 35.89%; the “Blood glucose level, 60 min” value worked out at 110.82. Also, in data set [5], the “% Increase in glucose, 90 min” value is on record as 30.53%; the “Blood glucose level, 90 min” value came out at 106.50; the “% Increase in glucose, 120 min” value is 30.27%; the “Blood glucose level, 120 min” value turned out to be 106.30. Also, the “Blood glucose level, 0 min” value in data set [5] (starch 2 gm/kg) came to 81.67.
On to `Nc1c2c(nc3sc4c(c13)CCC4)CCCC2` [BN-14, 2,3,6,7,8,9-Hexahydro-1H-cyclopenta[4,5]thieno[2,3-b]quinolin-10-amine], for which the “Release of NO” value in data set [1] is “significantly (p<0.01) suppressed”. In addition, in data set [2] (doses 2000 and 1250 mg/kg in rats), the “Toxicity, sighting study” value is on record as “toxic”. Moreover, the MTD at 14 days in data set [3] came to 1060 mg/kg. Moreover, in data set [4], the MTD at 14 days turned out to be 1250 mg/kg. In data set [5], the “% Increase in glucose, 30 min” value was 37.65%; the “Blood glucose level, 30 min” value was found to be 103.83; the “% Increase in glucose, 60 min” value is 36.02%; the “Blood glucose level, 60 min” value turned out to be 102.80. Also, in data set [5], the “% Increase in glucose, 90 min” value was determined as 45.00%; the “Blood glucose level, 90 min” value came to 109.33; the “% Increase in glucose, 120 min” value turned out to be 32.21%; the “Blood glucose level, 120 min” value was found to be 99.83. The “Blood glucose level, 0 min” value in data set [5] (starch 2 gm/kg) worked out at 75.5.
As for `CC1CCc2c(nc3sc4c(c3c2N)CCC4)C1` (stereo not shown) [BN-15, 7-Methyl-2,3,6,7,8,9-hexahydro-1H-cyclopenta[4,5]thieno[2,3-b]quinolin-10-amine], in data set [5], the “% Increase in glucose, 30 min” value was found to be 42.13%; the “Blood glucose level, 30 min” value is reported as 115.50; the “% Increase in glucose, 60 min” value turned out to be 51.64%; the “Blood glucose level, 60 min” value was 123.03. Further, in data set [5], the “% Increase in glucose, 90 min” value was 39.76%; the “Blood glucose level, 90 min” value turned out to be 113.75; the “% Increase in glucose, 120 min” value is on record as 42.80%; the “Blood glucose level, 120 min” value is recorded as 116.05. In data set [5] (starch 2 gm/kg), the “Blood glucose level, 0 min” value was found to be 81.45.
Consider `Nc1c2c(nc3sc4c(c13)CCC4)CCCCC2` [BN-16, 1,2,3,6,7,8,9,10-Octahydrocyclohepta[b]cyclopenta[4,5]thieno[3,2-e]pyridine-11-amine], for which the “Release of NO” value in data set [1] is on record as “significantly (p<0.01) suppressed”. Also, the “Toxic symptoms and mortality, sighting study” value in data set [2] is “do not show any toxic symptoms and mortality”. Moreover, the MTD at 14 days in data set [3] and in data set [4] was greater than 2000 mg/kg throughout.
With `Nc1c2c(nc3sc4c(c13)CCC4)CCCCCC2` [BN-17, 2,3,6,7,8,9,10,11-Octahydro-1H-cycloocta [b]cyclopenta[4,5]thieno[3,2-e]pyridin-12-amine], in data set [5], the “% Increase in glucose, 30 min” value is 51.74%; the “Blood glucose level, 30 min” value amounted to 124.60; the “% Increase in glucose, 60 min” value worked out at 52.35%; the “Blood glucose level, 60 min” value is recorded as 125.13. In data set [5], the “% Increase in glucose, 90 min” value is on record as 49.67%; the “Blood glucose level, 90 min” value was 123.13; the “% Increase in glucose, 120 min” value was found to be 49.64%; the “Blood glucose level, 120 min” value is 122.80. In addition, the “Blood glucose level, 0 min” value in data set [5] (starch 2 gm/kg) worked out at 82.40.
